Measured values from paper PMC3836372 (Biochemical and biophysical research communications, 2013).

Target: BmorOR1·BmorOrco (Bombyx mori, UniProt Q5WA61, P178A)
Assay type: cell-based
Settings: agonist; co-expressed with BmorOrco; 0.1% DMSO; -80 mV

## CCC/C=C\C=C\CCCCCCCCCO [bombykol, (10E,12Z)-hexadecadien-1-ol]
  two-electrode voltage clamp, Xenopus oocytes, dose-response of odorant-induced c: the effect on P178A-BmorOR1 was moderate
